Test [1] in a line: DRUGMATRIX: Glutamate, AMPA radioligand binding (ligand: [3H] AMPA). It is filed as cell membranes, Rattus norvegicus, Wistar, Cerebral cortex, Membrane. As to conditions: Not Active = under 50% inhibition at 10 µM.
In test [2] the target is T1, Neuropeptide Y receptor type 2 (Homo sapiens, UniProt P49146). Further: in other assays of this panel Not Active means under 50% inhibition at 10 µM.
T1 sequence (P49146 whole entry): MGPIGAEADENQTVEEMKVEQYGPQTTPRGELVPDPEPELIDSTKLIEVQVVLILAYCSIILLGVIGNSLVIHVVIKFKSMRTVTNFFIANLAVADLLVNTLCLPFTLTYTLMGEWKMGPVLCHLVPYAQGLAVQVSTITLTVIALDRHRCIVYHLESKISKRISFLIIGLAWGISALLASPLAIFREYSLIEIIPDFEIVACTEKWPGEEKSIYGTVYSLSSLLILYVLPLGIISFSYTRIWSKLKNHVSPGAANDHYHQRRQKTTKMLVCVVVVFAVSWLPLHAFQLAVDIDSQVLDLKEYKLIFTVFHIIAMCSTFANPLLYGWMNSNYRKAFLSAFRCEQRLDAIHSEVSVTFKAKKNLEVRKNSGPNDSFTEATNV
It is filed as cell membranes, Membrane. The conditions noted are these: kan-ts.

The nature of test [3]: DRUGMATRIX: Imidazoline I2, Central radioligand binding (ligand: [3H] Idazoxan). Format: cell membranes, Rattus norvegicus, Wistar, Cerebral cortex, Membrane. The conditions noted are these: Not Active = under 50% inhibition at 10 µM.
Test [4] has as its target Kappa-type opioid receptor (Homo sapiens, UniProt P41145). As to the kind of experiment: DRUGMATRIX: Opiate kappa (OP2, KOP) radioligand binding (ligand: [3H] Diprenorphine). Format: cell membranes, HEK293, Membrane. The conditions noted are these: Not Active = under 50% inhibition at 10 µM.
The target of test [5] is Platelet-activating factor receptor (Homo sapiens, UniProt P25105). Put plainly: biochemical. Format: tissue-based. The conditions noted are these: platelet. Further: in other assays of this panel Not Active means under 50% inhibition at 10 µM.
Sequence of Platelet-activating factor receptor (P25105 whole entry): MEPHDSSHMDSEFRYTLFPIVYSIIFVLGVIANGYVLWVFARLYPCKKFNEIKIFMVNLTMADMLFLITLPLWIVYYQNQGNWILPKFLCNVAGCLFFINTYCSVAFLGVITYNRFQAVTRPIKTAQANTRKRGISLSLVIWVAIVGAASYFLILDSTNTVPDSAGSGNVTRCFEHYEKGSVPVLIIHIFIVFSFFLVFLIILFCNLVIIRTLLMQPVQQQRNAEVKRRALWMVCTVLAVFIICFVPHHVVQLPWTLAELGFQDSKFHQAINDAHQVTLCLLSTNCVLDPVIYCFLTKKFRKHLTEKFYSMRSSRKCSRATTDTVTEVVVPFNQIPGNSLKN
In test [6] the target is D(1A) dopamine receptor (Homo sapiens, UniProt P21728). Put plainly: DRUGMATRIX: Dopamine D1 radioligand binding (ligand: [3H] SCH-23390). It is filed as cell membranes, CHO, Membrane. As to conditions: cho; Not Active = under 50% inhibition at 10 µM.
Sequence of D(1A) dopamine receptor (P21728 whole entry): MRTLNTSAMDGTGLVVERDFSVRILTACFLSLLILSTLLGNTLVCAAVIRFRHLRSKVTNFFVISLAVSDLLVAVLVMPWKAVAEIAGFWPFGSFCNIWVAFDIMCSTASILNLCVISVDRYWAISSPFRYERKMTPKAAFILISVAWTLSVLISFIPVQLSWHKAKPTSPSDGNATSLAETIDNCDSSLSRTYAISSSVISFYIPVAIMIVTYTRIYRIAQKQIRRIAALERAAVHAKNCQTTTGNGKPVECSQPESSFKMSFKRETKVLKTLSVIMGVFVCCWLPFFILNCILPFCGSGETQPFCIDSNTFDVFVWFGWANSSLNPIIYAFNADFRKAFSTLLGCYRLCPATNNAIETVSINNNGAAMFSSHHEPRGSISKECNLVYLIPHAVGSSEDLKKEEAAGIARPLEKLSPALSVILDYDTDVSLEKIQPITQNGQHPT
Test [7] has as its target T2, 5-hydroxytryptamine receptor 2C (Homo sapiens, UniProt P28335).
T2 sequence (P28335 whole entry): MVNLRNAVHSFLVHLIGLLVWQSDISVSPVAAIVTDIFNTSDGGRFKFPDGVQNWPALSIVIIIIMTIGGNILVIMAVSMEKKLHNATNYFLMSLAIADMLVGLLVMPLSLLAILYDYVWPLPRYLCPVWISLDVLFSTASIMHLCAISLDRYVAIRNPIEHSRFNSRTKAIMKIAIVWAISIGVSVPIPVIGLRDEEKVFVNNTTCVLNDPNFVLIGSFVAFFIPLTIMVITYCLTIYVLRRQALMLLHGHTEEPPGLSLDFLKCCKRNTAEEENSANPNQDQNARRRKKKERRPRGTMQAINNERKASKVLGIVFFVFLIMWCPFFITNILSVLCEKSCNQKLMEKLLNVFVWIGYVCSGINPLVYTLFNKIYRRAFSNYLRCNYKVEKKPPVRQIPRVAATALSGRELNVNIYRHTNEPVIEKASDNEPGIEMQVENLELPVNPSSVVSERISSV
As to the kind of experiment: DRUGMATRIX: Serotonin (5-Hydroxytryptamine) 5-HT2C radioligand binding (ligand: [3H] Mesulergine). As to conditions: Not Active = under 50% inhibition at 10 µM. It is filed as cell membranes, CHO-K1, Membrane.

Sequence of Kappa-type opioid receptor (P41145 whole entry): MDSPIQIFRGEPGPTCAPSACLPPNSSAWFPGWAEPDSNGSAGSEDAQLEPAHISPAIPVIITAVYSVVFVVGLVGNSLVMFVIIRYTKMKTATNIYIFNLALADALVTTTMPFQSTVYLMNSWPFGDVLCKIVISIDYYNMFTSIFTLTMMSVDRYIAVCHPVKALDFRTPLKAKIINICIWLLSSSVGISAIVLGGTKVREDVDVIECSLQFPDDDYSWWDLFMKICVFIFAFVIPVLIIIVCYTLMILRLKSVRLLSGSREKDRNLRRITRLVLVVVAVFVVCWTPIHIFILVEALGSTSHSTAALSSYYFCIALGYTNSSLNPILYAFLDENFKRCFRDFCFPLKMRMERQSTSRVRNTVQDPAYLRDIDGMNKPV

As for `COc1cc(N)nc2[nH]c(-c3ccc(F)cc3)c(-c3ccncc3)c12`, the IC50 entry in test [1], in test [2], in test [3], in test [4] (hek293), in test [5] and in test [6] was “Not Active” throughout. For the same compound, the IC50 in test [7] (read-out: IC50) is 1240 nM. For the same compound, the Ki result in test [1] was “Not Active”; in test [3], “Not Active”; in test [7] (read-out: Ki), 648 nM.
Consider `CNS(=O)(=O)Cc1ccc2[nH]cc(CCN(C)C)c2c1`, for which the IC50 result in test [1], in test [2], in test [3], in test [4] (hek293), in test [5] and in test [6] was “Not Active” throughout. In test [7] (cho-k1), the IC50 result is listed as “Not Active”. Moreover, the Ki result in test [1] and in test [3] was “Not Active” throughout.
Turning to `CCCc1nn(C)c2c(=O)[nH]c(-c3cc(S(=O)(=O)N4CCN(C)CC4)ccc3OCC)nc12`, the IC50 result in test [1], in test [2], in test [3], in test [4] (hek293), in test [5] and in test [6] was “Not Active” throughout. The IC50 result in test [7] (cho-k1) is “Not Active”. Also, the Ki result in test [1] and in test [3] was “Not Active” in each case.
Regarding `COc1ccc(/C=C/C(=O)Nc2ccccc2C(=O)O)cc1OC`, the IC50 result in test [1], in test [2], in test [3], in test [4] (hek293), in test [5] and in test [6] was “Not Active” each time. Besides, the IC50 result in test [7] (cho-k1) was “Not Active”. Besides, the inhibition constant Ki result in test [1] and in test [3] was “Not Active” each time.
As for `CCOC(N)=O`, the concentration for half-maximal inhibition (IC50) entry in test [1], in test [2], in test [3], in test [4] (hek293), in test [5] and in test [6] was “Not Active” in each case. Besides, the IC50 entry in test [7] (cho-k1) is on record as “Not Active”. Besides, the Ki result in test [1] and in test [3] was “Not Active” each time.
As for `CC(=O)Nc1nnc(S(N)(=O)=O)s1` [ACETAZOLAMIDE], the IC50 result in test [2], in test [4] (hek293), in test [5] and in test [7] (cho-k1) was “Not Active” throughout.
In the case of `O=c1[nH]c2ccccc2n1CCCN1CCC(n2c(=O)[nH]c3cc(Cl)ccc32)CC1` [DOMPERIDONE], the IC50 entry in test [2] and in test [5] was “Not Active” throughout.
`CC1=C(CC(=O)O)c2cc(F)ccc2/C1=C\c1ccc(S(C)(=O)=O)cc1` [EXISULIND]: the IC50 result in test [1], in test [2], in test [3], in test [4] (hek293), in test [5] and in test [6] was “Not Active” throughout. Also, in test [7] (cho-k1), the IC50 result is “Not Active”. For the same compound, the Ki result in test [1] and in test [3] was “Not Active” each time.
As for `CC(C)OC(=O)C(C)(C)Oc1ccc(C(=O)c2ccc(Cl)cc2)cc1` [FENOFIBRATE], the IC50 entry in test [2], in test [4] (hek293) and in test [5] was “Not Active” each time.
With `OCCN1CCN(CCCN2c3ccccc3Sc3ccc(C(F)(F)F)cc32)CC1` [FLUPHENAZINE], the IC50 entry in test [2] was “Not Active”; in test [4] (read-out: IC50), 24700 nM; in test [5], “Not Active”. This compound also gave a Ki in test [4] of 9890 nM.
As to `CN1C2CCCC1CC(NC(=O)c1nn(C)c3ccccc13)C2` (centres undefined) [GRANISETRON], the IC50 entry in test [2], in test [4] (hek293), in test [5] and in test [7] (cho-k1) was “Not Active” each time.
As for `Nc1nc2c(c(=O)[nH]1)N(C=O)C(CNc1ccc(C(=O)N[C@@H](CCC(=O)O)C(=O)O)cc1)CN2` (some centres undefined) [LEUCOVORIN], the IC50 entry in test [1], in test [2], in test [3], in test [4] (hek293), in test [5] and in test [6] was “Not Active” in each case. Also, the IC50 entry in test [7] (cho-k1) is listed as “Not Active”. The Ki entry in test [1] and in test [3] was “Not Active” in each case.
Consider `C[C@@H](O)[C@H]1C(=O)N2C(C(=O)O)=C(S[C@@H]3CN[C@H](C(=O)N(C)C)C3)[C@H](C)[C@H]12` [MEROPENEM], for which the IC50 result in test [1], in test [2], in test [3], in test [4] (hek293), in test [5] and in test [6] was “Not Active” throughout. Besides, the IC50 entry in test [7] (cho-k1) is “Not Active”. The Ki entry in test [1] and in test [3] was “Not Active” throughout.
Turning to `CC[C@@H](CO)NC(=O)[C@@H]1C=C2c3cccc4c3c(cn4C)C[C@H]2N(C)C1` [METHYSERGIDE], the IC50 result in test [2] was “Not Active”; in test [4] (hek293), “Not Active”; in test [5], “Not Active”; in test [7] (read-out: IC50), 2.09 nM. Moreover, the Ki in test [7] (read-out: Ki) is 1.09 nM.
In the case of `CCN(CC)CC#CCOC(=O)C(O)(c1ccccc1)C1CCCCC1` (centres undefined) [OXYBUTYNIN], the IC50 entry in test [2], in test [4] (hek293), in test [5] and in test [7] (cho-k1) was “Not Active” throughout.
As for `O=P(O)(O)C(O)(Cc1cccnc1)P(=O)(O)O` [RISEDRONIC ACID], the IC50 result in test [1], in test [2], in test [3], in test [4] (hek293), in test [5] and in test [6] was “Not Active” each time. Further, the IC50 result in test [7] (cho-k1) was “Not Active”. Besides, the Ki entry in test [1] and in test [3] was “Not Active” throughout.
`CN(CCOc1ccc(CC2SC(=O)NC2=O)cc1)c1ccccn1` (centres undefined) [ROSIGLITAZONE]: the IC50 result in test [1], in test [2], in test [3], in test [4] (hek293), in test [5] and in test [6] was “Not Active” throughout. In addition, the IC50 entry in test [7] (cho-k1) is “Not Active”. Further, the inhibition constant Ki entry in test [1] and in test [3] was “Not Active” throughout.
Take `C=C(C)[C@H]1Cc2c(ccc3c2O[C@@H]2COc4cc(OC)c(OC)cc4[C@@H]2C3=O)O1` [ROTENONE]: the half-inhibitory concentration (IC50) entry in test [1], in test [2], in test [3], in test [5], in test [6] and in test [7] (cho-k1) was “Not Active” in each case. The Ki result in test [1] and in test [3] was “Not Active” in each case.
On to `C#CCN(C)[C@H](C)Cc1ccccc1` [SELEGILINE], for which the IC50 entry is “Not Active” in test [1]; “Not Active” in test [2]; 1610 nM in test [3] (read-out: IC50); “Not Active” in test [4] (hek293); “Not Active” in test [5]; “Not Active” in test [6]. For the same compound, in test [7] (cho-k1), the IC50 result was “Not Active”. Further, the Ki entry was “Not Active” in test [1] and 1080 nM in test [3] (read-out: Ki).
In the case of `O=c1n(CCCN2CCN(c3cccc(Cl)c3)CC2)nc2ccccn12` [TRAZODONE], the IC50 entry in test [2], in test [4] (hek293) and in test [5] was “Not Active” in each case.
Consider `O=C(O)C(Cl)(Cl)Cl` [TRICHLOROACETIC ACID], for which the IC50 entry in test [1], in test [2], in test [3], in test [5], in test [6] and in test [7] (cho-k1) was “Not Active” in each case. Further, the Ki entry in test [1] and in test [3] was “Not Active” in each case.
For STANNOUS FLUORIDE, the concentration for half-maximal inhibition (IC50) result in test [1], in test [2], in test [3], in test [5], in test [6] and in test [7] (cho-k1) was “Not Active” throughout. Besides, the Ki result in test [1], in test [2], in test [3], in test [5], in test [6] and in test [7] (cho-k1) was “Not Active” in each case.
As for THIMEROSAL, the IC50 entry in test [1], in test [2], in test [3], in test [5], in test [6] and in test [7] (cho-k1) was “Not Active” throughout. The Ki result in test [1], in test [2], in test [3], in test [5], in test [6] and in test [7] (cho-k1) was “Not Active” in each case.

These data come from ChEMBL document CHEMBL1909046, “DrugMatrix in vitro pharmacology data”.
